From patent publication US20060122148A1, “High affinity receptors for helicobacter pylori and use thereof” (priority 2002, published 2006)

What was measured:
[1] = test system: H. pylori strain CCUG 17874; assay: Chromatogram binding assay of 35S-labeled H. pylori to gangliosides on thin-layer plates; set-up: species or system Helicobacter pylori; conditions: for Binding to ganglioside (in words): strain CCUG 17874, thin-layer plates, non-binding = no binding at 4 μg; for Amount at which binding was saturated: dilutions of gangliosides on thin-layer plates
H. pylori strain J99 = assay: as above; set-up: species or system Helicobacter pylori
[2] = test system: H. pylori strain CCGU 17874; assay: Overlay of TLC plates with radiolabeled bacteria (S-3-PG derivatives, glycolipids, neoglycolipids); type: binding, Helicobacter pylori; conditions: for Binding of H. pylori on TLC plates (in words): overlay with radiolabeled bacteria
H. pylori strain 032 = assay: Overlay of TLC plates with radiolabeled bacteria (PGCs); type: binding, Helicobacter pylori; conditions: 032 strain from broth

Substance | Binding to ganglioside (in words) [1] | Binding to ganglioside (in words) (H. pylori strain J99) | further results
Galα3(Fucα2)Galβ4GlcNAcβ6(NeuAcα3Galβ4GlcNAcβ3)Galβ4GlcNAcβ3Galβ4Glcβ1Cer [No. 19] | recognized | recognized | Detection level ([1]; thin-layer plates): approximately 100 pmole
NeuAcα3Galβ3(Fucα4)GlcNAcβ3Galβ4Glcβ1Cer [No. 6] | did not recognize | occasional binding | 
NeuAcα3Galβ4(Fucα3)GlcNAcβ3Galβ4(Fucα3)GlcNAcβ3Galβ4Glcβ1Cer [No. 13] | recognized |  | Amount at which binding was saturated [1]: approximately 100 pmole
NeuAcα3Galβ4GlcNAcβ3Galβ4(Fucα3)GlcNAcβ3Galβ4Glcβ1Cer [No. 12] | recognized |  | 
NeuAcα3Galβ4GlcNAcβ3Galβ4Glc-HDA (or -branched lipid) |  |  | Binding of H. pylori on TLC plates (in words) [2]: active
NeuAcα3Galβ4GlcNAcβ3Galβ4GlcNAcβ3Galβ4GlcNAcβ3Galβ4Glcβ1Cer [No. 10] | recognized |  | 
NeuAcα3Galβ4GlcNAcβ3Galβ4GlcNAcβ3Galβ4Glcβ1Cer [No. 8] | recognized | recognized | Amount at which binding was saturated [1]: approximately 100 pmole; Relative binding affinity ([1]; strain CCUG 17874, serial dilutions 1-100 pmole on thin-layer plates, densitometry): comparable to the binding of cholera toxin B-subunits to the GM1 ganglioside; Binding of H. pylori on TLC plates (in words) [2]: stronger than binding to sialoneotetraosylceramide
NeuAcα3Galβ4GlcNAcβ3Galβ4Glcβ1Cer [No. 2] |  |  | Binding of H. pylori on TLC plates (in words) (H. pylori strain 032): do not bind; Sensitivity of detection ([2]; some H. pylori batches): 0.3-0.4 pmol/mm^2
NeuAcα3Galβ4GlcNAcβ6(NeuAcα3Galβ4GlcNAcβ3)Galβ4GlcNAcβ3Galβ4Glcβ1Cer [No. 16] | recognized | recognized | 
NeuAcα3Galβ4Glcβ1Cer [No. 1] | inactive |  | 
